{"source": "paper PMC4361037", "about": "(Annals of neurology, 2014)", "key": {"[1]": {"tested_on": "GAA repeat RNA–containing foci"}, "[2]": {"details": "human, in vivo, po"}, "clinical": {"assay": "clinical", "details": "human, in vivo, po; for half-life: t½ (elimination half-life)"}, "FXN mRNA": {"tested_on": "FXN mRNA", "assay": "qRT-PCR analysis of FXN mRNA expression in FRDA iPSC-derived neurons", "type": "cell-based, human", "details": "10μM, 24-hour treatment"}, "HDAC3 versus HDAC1/2": {"tested_on": "HDAC3 versus HDAC1/2", "details": "cited from earlier work"}, "FXN mRNA and protein": {"tested_on": "FXN mRNA and protein", "details": "cited from earlier work; for upregulation of FXN mRNA and protein: patient PBMCs"}, "[3]": {"biological_target": "human ether-a-go-go related gene (hERG) (Homo sapiens, UniProt Q12809)", "sequence (Q12809 whole entry)": "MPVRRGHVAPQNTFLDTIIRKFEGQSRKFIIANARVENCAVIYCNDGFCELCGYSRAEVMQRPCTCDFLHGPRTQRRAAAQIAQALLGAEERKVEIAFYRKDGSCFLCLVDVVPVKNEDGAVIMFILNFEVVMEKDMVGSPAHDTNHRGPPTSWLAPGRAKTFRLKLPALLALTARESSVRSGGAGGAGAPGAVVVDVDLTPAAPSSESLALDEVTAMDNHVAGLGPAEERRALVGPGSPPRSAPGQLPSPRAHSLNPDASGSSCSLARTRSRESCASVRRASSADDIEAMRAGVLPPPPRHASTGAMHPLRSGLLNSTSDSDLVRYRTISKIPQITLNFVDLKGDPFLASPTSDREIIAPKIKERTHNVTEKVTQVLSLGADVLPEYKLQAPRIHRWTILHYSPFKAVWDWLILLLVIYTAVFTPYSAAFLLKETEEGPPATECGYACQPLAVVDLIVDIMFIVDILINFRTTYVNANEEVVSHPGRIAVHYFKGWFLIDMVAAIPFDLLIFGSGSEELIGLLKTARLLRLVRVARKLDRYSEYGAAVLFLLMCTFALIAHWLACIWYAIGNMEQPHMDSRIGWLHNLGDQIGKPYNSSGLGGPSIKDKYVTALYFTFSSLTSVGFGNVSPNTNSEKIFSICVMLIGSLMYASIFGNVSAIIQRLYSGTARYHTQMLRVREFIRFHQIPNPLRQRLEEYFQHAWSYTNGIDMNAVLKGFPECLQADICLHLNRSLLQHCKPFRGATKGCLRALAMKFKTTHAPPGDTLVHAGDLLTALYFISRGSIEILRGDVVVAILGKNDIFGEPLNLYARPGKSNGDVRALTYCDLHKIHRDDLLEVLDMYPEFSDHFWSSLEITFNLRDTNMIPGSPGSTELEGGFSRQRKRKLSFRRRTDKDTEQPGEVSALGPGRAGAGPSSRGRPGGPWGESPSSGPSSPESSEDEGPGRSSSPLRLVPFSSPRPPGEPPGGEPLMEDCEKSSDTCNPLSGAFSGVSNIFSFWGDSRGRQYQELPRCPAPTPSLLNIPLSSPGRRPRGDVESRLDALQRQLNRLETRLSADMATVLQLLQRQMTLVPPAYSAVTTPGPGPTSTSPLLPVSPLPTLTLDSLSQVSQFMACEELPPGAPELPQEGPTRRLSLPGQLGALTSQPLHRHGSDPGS", "assay": "Automated patch clamp assay", "type": "cell-based"}, "FXN transcription": {"tested_on": "FXN transcription", "details": "doses up to 8g per day; cited from earlier work"}, "[4]": {"tested_on": "voltage-gated Na+ channel", "type": "cell-based, human"}}, "note": "pIC50: −log10 of the molar value. Several values for one entry are separate records, joined by “and”; a condition that tells them apart may be missing. Equal entries are not always repeated. Where two headings read alike, the source gives them in different places."}
{"smiles": "Cc1ccc(C(=O)NCCCCCC(=O)Nc2ccccc2N)cc1", "note": "[HDACi 109, N-[6-(2-aminophenylamino) −6-oxohexyl]-4-methylbenzamide]", "values": [{"measurement": "GAA•TTC repeat instability", "setting": "GAA•TTC repeats", "result": "no effect on repeat instability"}, {"measurement": "RNA nuclear foci", "setting": "[1]", "result": "lack of RNA nuclear foci"}, {"measurement": "CL/F", "setting": "[2]", "result": "6.39±1.71 (5) l/h"}, {"measurement": "Cmax (time of)", "setting": "[2]", "result": "≤ 2", "unit": "h"}, {"measurement": "CL/F", "setting": "[2]; 30 mg", "result": "3.91±0.59 (2) l/h"}, {"measurement": "CL/F", "setting": "[2]; 60 mg", "result": "6.43±1.51 (3) l/h"}, {"measurement": "CL/F", "setting": "[2]; 120 mg", "result": "5.80±1.46 (5) l/h"}, {"measurement": "CL/F", "setting": "[2]; 180 mg", "result": "5.24±0.89 (5) l/h"}, {"measurement": "AUC(0-inf)", "setting": "clinical", "result": 39600, "unit": "ng·h/mL"}, {"measurement": "AUC(0-t)", "setting": "clinical", "result": 39300, "unit": "ng·h/mL"}, {"measurement": "CL/F", "setting": "clinical", "result": 1.98, "unit": "mL/min/kg"}, {"measurement": "Cmax", "setting": "clinical", "result": 7150, "unit": "ng/mL"}, {"measurement": "Tmax", "setting": "clinical", "result": 0.5, "unit": "h"}, {"measurement": "Vd/F", "setting": "clinical", "result": "75.5 L and 1.41 L/kg"}, {"measurement": "k el", "setting": "clinical", "result": "2.34e-05", "unit": "s⁻¹"}, {"measurement": "AUC(0-inf)", "setting": "clinical; 30 mg", "result": 7760, "unit": "ng·h/mL"}, {"measurement": "AUC(0-t)", "setting": "clinical; 30 mg", "result": 7700, "unit": "ng·h/mL"}, {"measurement": "CL/F", "setting": "clinical; 30 mg", "result": 1.02, "unit": "mL/min/kg"}, {"measurement": "Cmax", "setting": "clinical; 30 mg", "result": 1980, "unit": "ng/mL"}, {"measurement": "Tmax", "setting": "clinical; 30 mg", "result": 0.67, "unit": "h"}, {"measurement": "Vd/F", "setting": "clinical; 30 mg", "result": "45.1 L and 0.69 L/kg"}, {"measurement": "k el", "setting": "clinical; 30 mg", "result": "2.49e-05", "unit": "s⁻¹"}, {"measurement": "half-life", "setting": "clinical; 30 mg", "result": 8.2, "unit": "h"}, {"measurement": "AUC(0-inf)", "setting": "clinical; 60 mg", "result": 9720, "unit": "ng·h/mL"}, {"measurement": "AUC(0-t)", "setting": "clinical; 60 mg", "result": 9630, "unit": "ng·h/mL"}, {"measurement": "CL/F", "setting": "clinical; 60 mg", "result": 1.45, "unit": "mL/min/kg"}, {"measurement": "Cmax", "setting": "clinical; 60 mg", "result": 2560, "unit": "ng/mL"}, {"measurement": "Tmax", "setting": "clinical; 60 mg", "result": 0.67, "unit": "h"}, {"measurement": "Vd/F", "setting": "clinical; 60 mg", "result": "79 L and 1.04 L/kg"}, {"measurement": "k el", "setting": "clinical; 60 mg", "result": "2.37e-05", "unit": "s⁻¹"}, {"measurement": "half-life", "setting": "clinical; 60 mg", "result": 8.43, "unit": "h"}, {"measurement": "AUC(0-inf)", "setting": "clinical; 120 mg", "result": 22000, "unit": "ng·h/mL"}, {"measurement": "AUC(0-t)", "setting": "clinical; 120 mg", "result": 21700, "unit": "ng·h/mL"}, {"measurement": "CL/F", "setting": "clinical; 120 mg", "result": 1.42, "unit": "mL/min/kg"}, {"measurement": "Cmax", "setting": "clinical; 120 mg", "result": 6470, "unit": "ng/mL"}, {"measurement": "Tmax", "setting": "clinical; 120 mg", "result": 1, "unit": "h"}, {"measurement": "Vd/F", "setting": "clinical; 120 mg", "result": "89.7 L and 1.32 L/kg"}, {"measurement": "k el", "setting": "clinical; 120 mg", "result": "2.05e-05", "unit": "s⁻¹"}, {"measurement": "half-life", "setting": "clinical; 120 mg", "result": 10.1, "unit": "h"}, {"measurement": "AUC(0-inf)", "setting": "clinical; 180 mg", "result": 35100, "unit": "ng·h/mL"}, {"measurement": "AUC(0-t)", "setting": "clinical; 180 mg", "result": 34900, "unit": "ng·h/mL"}, {"measurement": "CL/F", "setting": "clinical; 180 mg", "result": 1.65, "unit": "mL/min/kg"}, {"measurement": "Cmax", "setting": "clinical; 180 mg", "result": 10900, "unit": "ng/mL"}, {"measurement": "Tmax", "setting": "clinical; 180 mg", "result": 0.67, "unit": "h"}, {"measurement": "Vd/F", "setting": "clinical; 180 mg", "result": "52.8 L and 1 L/kg"}, {"measurement": "k el", "setting": "clinical; 180 mg", "result": "2.82e-05", "unit": "s⁻¹"}, {"measurement": "half-life", "setting": "clinical; 180 mg", "result": 7.07, "unit": "h"}, {"measurement": "half-life", "setting": "clinical", "result": 8.56, "unit": "h"}]}
{"smiles": "Nc1ccc(-c2cccs2)cc1NC(=O)CCCCCCNC(=O)c1cccnc1", "note": "[HDACi 233, N-[2-amino-5-(2-thienyl)phenyl]-7-nicotinoylamino-heptanamide]", "values": [{"measurement": "FXN gene expression induction compared with HDACi 109", "setting": "FXN mRNA", "result": "Neither of these latter compounds induced FXN gene expression to the extent observed with HDACi 109"}]}
{"smiles": "Nc1cc(F)ccc1NC(=O)/C=C/c1cnn(CC=Cc2ccccc2)c1", "note": "[HDACi 966, [E]-N-[2-amino-4-fluorophenyl]-3-[1-cinnamyl-1H-pyrazol-4-yl]acrylamide]", "values": [{"measurement": "FXN gene expression induction compared with HDACi 109", "setting": "FXN mRNA", "result": "Neither of these latter compounds induced FXN gene expression to the extent observed with HDACi 109"}, {"measurement": "selectivity for HDAC3 over HDAC1/2", "setting": "HDAC3 versus HDAC1/2", "result": "~ 30 fold"}]}
{"smiles": "Nc1ccc(-c2ccccc2)cc1NC(=O)CCCCCC(=O)Nc1ccccc1", "note": "[N[1]-[4-aminobiphenyl-3-yl]-N[7]-phenylheptanediamide]", "values": [{"measurement": "FXN upregulation", "setting": "FXN mRNA and protein; patient lymphocytes", "result": "inactive"}]}
{"smiles": "O=C(CCCCCCC(=O)Nc1ccccc1)NO", "note": "[SAHA, suberoylanilide hydroxamic acid]", "values": [{"measurement": "upregulation of FXN mRNA and protein", "setting": "FXN mRNA and protein", "result": "fail to elicit this effect"}]}
{"smiles": "c1ccc2[nH]cnc2c1", "note": "[benzimidazole]", "values": [{"measurement": "pIC50", "setting": "[3]", "result": 6.04}]}
{"smiles": "NC(=O)c1cccnc1", "note": "[nicotinamide]", "values": [{"measurement": "restoring FXN transcription in peripheral lymphocytes from blood of orally dosed patients", "setting": "FXN transcription", "result": "effective"}]}
{"smiles": "NC1=N[C@H](O)[C@H]2[C@H]3O[C@]4(O)O[C@@H]([C@@H](O)[C@@]2(N1)[C@@H]4O)[C@]3(O)CO", "note": "[tetrodotoxin]", "values": [{"measurement": "action potential generation", "setting": "[4]", "result": "reversibly blocked AP generation"}]}
{"smiles": "Cc1ccc(S(=O)(=O)O)cc1", "note": "[toluene sulfonic acid]", "values": [{"measurement": "upregulation of FXN mRNA and protein", "setting": "FXN mRNA and protein", "result": "fail to elicit this effect"}]}
